pEC50: −log10 of the molar value.
Target: T1, human PPARγ2 (Homo sapiens, UniProt P37231)
T1 construct: the amino acids 182 to 505 of human PPARγ2; expressed in transfected cells; host or cells: COST cells (so in the source)
T1 sequence (P37231 182-505): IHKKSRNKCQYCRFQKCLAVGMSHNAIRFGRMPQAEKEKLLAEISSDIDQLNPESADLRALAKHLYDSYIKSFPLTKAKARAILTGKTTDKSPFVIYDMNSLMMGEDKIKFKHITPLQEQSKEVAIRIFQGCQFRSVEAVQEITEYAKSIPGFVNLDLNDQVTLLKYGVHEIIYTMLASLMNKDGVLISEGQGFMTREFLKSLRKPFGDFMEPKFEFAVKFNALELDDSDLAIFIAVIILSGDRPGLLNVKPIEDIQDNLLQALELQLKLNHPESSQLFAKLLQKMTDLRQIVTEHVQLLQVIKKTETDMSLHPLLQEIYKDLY
Assay: PPARγ activation activity, Gal4-PPARγ2 LBD chimera luciferase transfection assay in COST cells
Format: cell-based
Conditions: Gal4 (aa 1-147)/human PPARγ2 LBD (aa 182-505) chimera, luciferase reporter, 16 hours, rosiglitazone (3 to 10 μmol/L) = 100%, read-out: EC50 (50% effective concentration, PPARγ activation)
Description: PPARγ Activation Activity
The agonistic activity of the compounds of the invention on PPARγ was measured based on the transfection assay using COST cells (DS Pharma Biomedical Co., Ltd., Osaka, Japan), which are the cell line derived from the kidney of the African green monkey. COST cells were cultured under 5% CO2 concentration, and DMEM medium containing 10% fetal bovine serum, glutamic acid, and antibiotics was used as a medium.
As an expression vector, a chimera in which DNA binding domain of Ga14, which is a yeast transcription factor, and ligand binding domain of human PPARγ2 are fused, i.e., a fused product between the amino acids 1 to 147 of Gal4 transcription factor and the amino acids 182 to 505 of human PPARγ2, was used. Furthermore, as a reporter vector, a firefly luciferase containing five copies of Gal4 recognition sequence in the promoter region was used. Plasmid transfection to the cells was performed according to a method which uses jetPEI (trade name, manufactured by Funakoshi Co., Ltd., Tokyo, Japan). Furthermore, β-galactosidase expression vector was employed as an internal standard.
After the transfection of the cells, the medium was replaced with a DMEM medium (containing 1% serum) added with the test compound, and the cells were further cultured for 16 hours. After that, the luciferase activity and β-galactosidase activity in the cell lysis solution were measured.
For the present test, dimethylsulfoxide (DMSO) was used for dissolution and dilution of the test compounds, and during the cell treatment, the DMSO concentration in DMEM medium (containing 1% serum) was adjusted to 0.1%. As a positive compound, rosiglitazone (trade name, manufactured by ALEXIS Corporation, Switzerland) was used. The percentage (%) of the luciferase activity of the each test compound (1 to 30 μmol/L) was calculated when the luciferase activity of rosiglitazone (3 to 10 μmol/L) is 100% and the luciferase activity in the absence of the test compound is 0%. The 50% effective concentration of the test compound (EC50, 50% effect concentration) was calculated by using SAS Preclinical Package Ver 5.0 (trade name, manufactured by SAS institute Japan Co., Tokyo, Japan), which is a statistical analysis program.

Row | Compound | pEC50
1 | CCCCc1nc(C)nc(OC2CCC(O)CC2)c1Cc1ccc(-c2ccccc2-c2noc(=O)[nH]2)cc1 (stereo not shown) [Example 34, 3-{4′-{{4-butyl-6-[(4-hydroxycyclohexyl)oxy]-2-methylpyrimidin-5-yl]methyl}-[1,1′-biphenyl]-2-yl}-1,2,4-oxadiazol-5 (4H)-one] | 5.87
2 | CCCCc1nc(C)nc(OCCCC(=O)NCC)c1Cc1ccc(-c2ccccc2-c2noc(=O)[nH]2)cc1 [Example 9, 4-{{6-butyl-2-methyl-5-{[2′-(5-oxo-4,5-dihydro-1,2,4-oxadiazol-3-yl)-[1,1′-biphenyl]-4-yl]methyl}pyrimidin-4-yl}oxy}-N-ethylbutanamide] | 5.55
3 | CCCCc1nc(C)nc(OCCOCc2ccccc2)c1Cc1ccc(-c2ccccc2-c2noc(=O)[nH]2)cc1 [Example 14, 3-{4′-{{4-[2-(benzyloxy)ethoxy]-6-butyl-2-methylpyrimidin-5-yl}methyl}-[1,1′-biphenyl]-2-yl}-1,2,4-oxadiazol-5(4H)-one] | 6.54
4 | CCCCc1nc(C)nc(OCCOCCOC)c1Cc1ccc(-c2ccccc2-c2noc(=O)[nH]2)cc1 [Example 13, 3-{4′-{{4-butyl-6-[2-(2-methoxyethoxy)ethoxy]-2-methylpyrimidin-5-yl}methyl}-[1,1′-biphenyl]-2-yl}-1,2,4-oxadiazol-5(4H)-one] | 5.80
5 | CCCCc1nc(C)nc(OC(C(=O)OC)c2ccccc2)c1Cc1ccc(-c2ccccc2-c2noc(=O)[nH]2)cc1 (stereo not shown) [Example 25, methyl 2-{{6-butyl-2-methyl-5-{[2′-(5-oxo-4,5-dihydro-1,2,4-oxadiazol-3-yl)-[1,1-biphenyl]-4-yl]methyl}pyrimidin-4-yl}oxy}-2-phenylacetate] | 6.14
6 | CCCc1nc2c(C)cc(-c3nc4ccccc4n3C)cc2n1Cc1ccc(-c2ccccc2C(=O)O)cc1 [telmisartan, reference compound] | 5.30 to 6.00
7 | CCCCc1nc(C)nc(OCCOCC)c1Cc1ccc(-c2ccccc2-c2noc(=O)[nH]2)cc1 [Example 11, 3-{4′-{[4-butyl-6-(2-ethoxyethoxy)-2-methylpyrimidin-5-yl]methyl}-[1,1′-biphenyl]-2-yl}-1,2,4-oxadiazol-5(4H)-one] | 6.06
8 | CCCCc1nc(C)nc(OCCc2ccc(OCCOC)c(OC)c2)c1Cc1ccc(-c2ccccc2-c2noc(=O)[nH]2)cc1 [Example 36, 3-{4′-{{4-butyl-6-[3-methoxy-4-(2-methoxyethoxy)phenethoxy]-2-methylpyrimidin-5-yl}methyl}-[1,1′-biphenyl]-2-yl}-1,2,4-oxadiazol-5 (4H)-one] | 6.20
9 | CCCCc1nc(C)nc(OCC(=O)N2CCCC2)c1Cc1ccc(-c2ccccc2-c2noc(=O)[nH]2)cc1 [Example 29, 3-{4′-{{4-butyl-2-methyl-6-[2-oxo-2-(pyrrolidin-1-yl)ethoxy]pyrimidin-5-yl}methyl}-[1,1′-biphenyl]-2-yl}-1,2,4-oxadiazof-5 (4H)-one] | 5.68
10 | CCCCc1nc(C)nc(OCCCC(=O)N(CC)CC)c1Cc1ccc(-c2ccccc2-c2noc(=O)[nH]2)cc1 [Example 10, 4-{{6-butyl-2-methyl-5-{[2′-(5-oxo-4,5-dihydro-1,2,4-oxadiazol-3-yl)-[1,1′-biphenyl]-4-yl]methyl}pyrimidin-4-yl}oxy}-N,N-diethylbutanamide] | 5.75
11 | CCCCc1nc(C)nc(OCCCCOC)c1Cc1ccc(-c2ccccc2-c2noc(=O)[nH]2)cc1 [Example 23, 3-{4′-{[4-butyl-6-(4-methoxybutoxy)-2-methylpyrimidin-5-yl]methyl}-[1,1′-biphenyl]-2-yl}-1,2,4-oxadiazol-5(4H)-one] | 6.15
12 | CCCCCc1nc(C)nc(OCCOC)c1Cc1ccc(-c2ccccc2-c2noc(=O)[nH]2)cc1 [Example 37, 3-{4′-{[4-(2-methoxyethoxy)-2-methyl-6-pentylpyrimidin-5-yl]methyl}-[1,1′-biphenyl]-2-yl}-1,2,4-oxadiazol-5(4H)-one] | 6.08
13 | CCCCc1nc(C)nc(OCC2OCCO2)c1Cc1ccc(-c2ccccc2-c2noc(=O)[nH]2)cc1 [Example 24, 3-{4′-{{4-[(1,3-dioxolan-2-yl)methoxy]-6-butyl-2-methylpyrimidin-5-yl}methyl}-[1,1′-biphenyl]-2-yl}-1,2,4-oxadiazol-5(4H)-one] | 5.86
14 | CCCCc1nc(C)nc(OCCOCCC)c1Cc1ccc(-c2ccccc2-c2noc(=O)[nH]2)cc1 [Example 12, 3-{4′-{[4-butyl-2-methyl-6-(2-propoxyethoxy)pyrimidin-5-yl]methyl}-[1,1′-biphenyl]-2-yl}-1,2,4-oxadiazol-5(4H)-one] | 6.24
15 | CCCCc1nc(C)nc(OCC(OCC)OCC)c1Cc1ccc(-c2ccccc2-c2noc(=O)[nH]2)cc1 [Example 20, 3-{4′-{[4-butyl-6-(2,2-diethoxyethoxy)-2-methylpyrimidin-5-yl]methyl}-[1,1′-biphenyl]-2-yl}-1,2,4-oxadiazol-5(4H)-one] | 6.51
16 | CCCCc1nc(C)nc(OCCSC)c1Cc1ccc(-c2ccccc2-c2noc(=O)[nH]2)cc1 [Example 17, 3-{4′-{{4-butyl-2-methyl-6-[2-(methylthio)ethoxy]pyrimidin-5-yl}methyl}-[1,1′-biphenyl]-2-yl}-1,2,4-oxadiazol-5(4H)-one] | 6.39
17 | CCCCc1nc(C)nc(OCCOC(C)C)c1Cc1ccc(-c2ccccc2-c2noc(=O)[nH]2)cc1 [Example 16, 3-{4′-{[4-butyl-6-(2-isopropoxyethoxy)-2-methylpyrimidin-5-yl]methyl}-[1,1′-biphenyl]-2-yl}-1,2,4-oxadiazol-5(4H)-one] | 6.19
18 | CCCCc1nc(C)nc(OCC(C)O)c1Cc1ccc(-c2ccccc2-c2noc(=O)[nH]2)cc1 (stereo not shown) [Example 21, 3-{4′-{[4-butyl-6-(2-hydroxypropoxy)-2-methylpyrimidin-5-yl]methyl}-[1,1′-biphenyl]-2-yl}-1,2,4-oxadiazol-5(4H)-one] | 6.40
19 | CCCCc1nc(C)nc(OCc2nc(-c3ccc(C)cc3)oc2C)c1Cc1ccc(-c2ccccc2-c2noc(=O)[nH]2)cc1 [Example 32, 3-{4′-{{4-butyl-2-methyl-6-{[5-methyl-2-(p-tolyl)oxazol-4-yl]methoxy}pyrimidin-5-yl}methyl}-[1,1′-biphenyl]-2-yl}-1,2,4-oxadiazol-5(4H)-one] | 6.42
20 | CCCCc1nc(C)nc(OCC(OC)OC)c1Cc1ccc(-c2ccccc2-c2noc(=O)[nH]2)cc1 [Example 19, 3-{4′-{[4-butyl-6-(2,2-dimethoxyethoxy)-2-methylpyrimidin-5-yl]methyl}-[1,1′-biphenyl]-2-yl}-1,2,4-oxadiazol-5(4H)-one] | 6.06
21 | CCCCc1nc(C)nc(OCC(N)=O)c1Cc1ccc(-c2ccccc2-c2noc(=O)[nH]2)cc1 [Example 3, 2-{{6-butyl-2-methyl-5-{[2′-(5-oxo-4,5-dihydro-1,2,4-oxadiazol-3-yl)-[1,1′-biphenyl]-4-yl]methyl}pyrimidin-4-yl}oxy}acetamide] | 5.54
22 | CCCCc1nc(C)nc(OC2CCC(=O)CC2)c1Cc1ccc(-c2ccccc2-c2noc(=O)[nH]2)cc1 [Example 35, 3-{4′-{{4-butyl-2-methyl-6-[(4-oxocyclohexyl)oxy]pyrimidin-5-yl}methyl}-[1,1′-biphenyl]-2-yl}-1,2,4-oxadiazol-5(4H)-one] | 5.82

— patent US20120322819A1, “COMPOUND CONTAINING A NOVEL 4-ALKOXYPYRIMIDINE STRUCTURE AND MEDICINE CONTAINING SAME” (KOWA COMPANY, LTD., priority 2010, published 2012)
